Laboratory results from patent US20190135887A1, “METABOLICALLY STABLE SPEXIN PEPTIDE ANALOGS” (UNIVERSITÉ DE STRASBOURG, priority 2016, published 2019).
Like-named read-outs stand apart in the source and are kept apart here. Peptide text beside a SMILES is read from it. * marks the point of attachment. Propanoyl(3-C8F17) = O=C(CCC(F)(F)C(F)(F)C(F)(F)C(F)(F)C(F)(F)C(F)(F)C(F)(F)C(F)(F)F)*

Legend:
GalR2 = biological target: T1, GalR2 (Homo sapiens, UniProt O43603); assay: Calcium mobilization in CHO cells expressing GalR2; assay type: cell-based
T1 construct: expressed in transfected cells; host or cells: CHO cells
T1 sequence (O43603 1-387): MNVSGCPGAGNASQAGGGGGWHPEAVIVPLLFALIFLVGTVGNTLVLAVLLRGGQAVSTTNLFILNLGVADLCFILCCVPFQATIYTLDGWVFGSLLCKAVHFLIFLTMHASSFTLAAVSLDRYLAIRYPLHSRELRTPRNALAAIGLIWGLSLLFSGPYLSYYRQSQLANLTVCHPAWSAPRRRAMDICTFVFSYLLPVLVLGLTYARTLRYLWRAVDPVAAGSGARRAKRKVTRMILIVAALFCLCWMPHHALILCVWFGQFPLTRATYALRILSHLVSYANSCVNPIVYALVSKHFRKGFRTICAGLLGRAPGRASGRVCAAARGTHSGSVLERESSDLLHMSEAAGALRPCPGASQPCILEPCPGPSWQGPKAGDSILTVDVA

human GALR1 = biological target: T2, human GALR1 (Homo sapiens, UniProt P47211); assay: Forskolin-induced cAMP accumulation, GloSensor cAMP assay in HEK293 cells; assay type: cell-based; conditions: HEK293 cells stably expressing GalR1, 1 μM compound
T2 construct: expressed in transfected cells; transiently transfected with pGloSensor-22F
T2 sequence (P47211 1-349): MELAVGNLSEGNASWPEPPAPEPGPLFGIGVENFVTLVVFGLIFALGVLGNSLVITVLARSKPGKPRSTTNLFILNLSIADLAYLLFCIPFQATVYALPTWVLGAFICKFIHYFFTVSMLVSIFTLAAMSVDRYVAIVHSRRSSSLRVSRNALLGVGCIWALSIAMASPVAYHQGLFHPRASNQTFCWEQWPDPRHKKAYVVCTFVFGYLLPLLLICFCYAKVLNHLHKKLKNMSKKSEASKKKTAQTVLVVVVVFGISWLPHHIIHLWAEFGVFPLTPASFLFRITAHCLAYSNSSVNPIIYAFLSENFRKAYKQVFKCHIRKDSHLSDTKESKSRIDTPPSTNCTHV
Experimental: The effects were examined by using the GloSensor™ cAMP Assay according to manufacturer recommendations (Promega, Madison Wis., USA) with a few modifications. […] Following pre-equilibration for 2 h at 25° C., D-luciferin-loaded cells were distributed (100,000 cells per well) in a white 96-well plate and kinetic recordings of their luminescence level were acquired using a FlexStation II (Molecular Devices, Sunnyvale Calif., USA). Compounds to be tested were injected at various concentrations 10 min before forskolin addition (0.5 μM final concentration) and readings were pursued for 30 min. Experiments were conducted at 25° C. in the presence of 0.1 mM IBMX to prevent the degradation of cAMP by phospodiesterases.

[1] = biological target: T3, human galanin GAL2 receptor (Homo sapiens, UniProt O43603); assay: Radioligand binding assay, [125I]galanin, transfected CHO cell membranes; conditions: read-out: Affinity % of inhibition at 100 nM
T3 construct: expressed in transfected cells; host or cells: CHO cells (membrane homogenates)
T3 sequence (O43603 1-387): T1 sequence (O43603 1-387)
Experimental: Following incubation, the samples are filtered rapidly under vacuum through glass fiber filters (GF/B, Packard) presoaked with 0.3% PEI and rinsed several times with ice-cold 50 mM Tris-HCl using a 96-sample cell harvester (Unifilter, Packard). The filters are dried then counted for radioactivity in a scintillation counter (Topcount, Packard) using a scintillation cocktail (Microscint 0, Packard). The results are expressed as a percent inhibition of the control radioligand specific binding.

[2] = Solubility in water by visual observation; assay type: physicochemical; conditions: dissolution in water to reach 100 μM
Experimental: The resulting solution was vortexed 1 min following by 1 min in bath sonication. Solubility was then assessed by visual observation of the resulting dispersion (Clear/Cloudy and presence of particulates).

Human plasma stability = assay type: in vitro ADME; conditions: 37° C., 2 h incubation, read-out: Human plasma stability (t1/2)
Experimental: This procedure is designed to determine the stability of a test compound in blood or plasma from human or animal species in a 96-well plate format. The test compound is quantified at 5 time points by HPLC-MS/MS analysis. Test concentration: 1 μM with a final DMSO concentration of 0.5%. Experimental protocol: Blood or plasma are pre-warmed at 37° C. water bath for 5 min, followed by addition of the test compound. The incubation is performed in a 37° C. water bath for 2 h. An aliquot of the incubation mixture is transferred to acetonitrile at 0, 0.5, 1, 1.5 and 2 h, respectively. Samples are then mixed and centrifuged. Supernatants are used for HPLC-MS/MS analysis. Reference compounds Propoxycaine and propantheline are tested simultaneously with the test compound in each assay. Analytical methods Samples are analyzed by HPLC-MS/MS using selected reaction monitoring. The HPLC system consists of a binary LC pump with autosampler, a C-18 column, and a gradient. Conditions may be adjusted as necessary. Data analysis Peak areas corresponding to the test compound are recorded. The compound remaining (%) is calculated by comparing the peak area at each time point to time zero. The half-life is calculated from the slope of the initial linear range of the logarithmic curve of compound remaining (%) vs. time, assuming first order kinetics.

[3] = Non-specific adsorption to Eppendorf protein LoBind tubes; conditions: 10 μM in HEPES/BSA buffer
Experimental: The propensity of spexin analogs to bind to Eppendorf protein LoBind tubes was evaluated.
A solution of 10 μM of spexin analogs in solution in HEPES/BSA buffer was added to Eppendorf protein LoBind tubes, stirred for 5 min and vortexed for 2 min. The supernatant was removed from the tube and acetonitrile was added to dissolve the compound adsorbed to the plastic. The amount of peptide recovered was then evaluated by HPLC-MS/MS following the same protocol than above described for plasma stability analysis. The non-specific adsorption of peptides (%) was calculated by comparing the peak area of each compound recovered to that obtained with the same compound in DMSO (prevent the adsorption of the compounds to plastic).

C57BL/6N male mice = assay: Tail immersion test (nociception); assay type: in vivo
Experimental: Tail immersion test: Nociception tests were performed on male, awake C57BL/6N male mice (25-30 g weight; Janvier Labs, France). Animals were housed in groups of five per cage and kept under a 12 h/12 h light/dark cycle at 21±1° C. with ad libitum access to food and water. Experiments were performed during the light-on phase of the cycle. Mice were habituated to the testing room and equipment and handled for 1 week before starting behavioural experiments. The nociceptive thermal threshold of mice was determined using the tail immersion test. Mice were restrained in a grid pocket and their tail was immersed in a thermostated water bath. The latency (in sec) for tail withdrawal from hot water (47±0.5° C.) was taken as a measure of the nociceptive response.

[4] = CHO cells expressing GalR2, Fluo-4 AM, 37° C., read-out: EC50 Ca2+ production

solubility at 2 min [2] [µM]	SMILES	EC50 (GalR2; [4]) [nM]	% of activity at 1 μM (human GALR1) [%]	inhibition at 0.1 µM [1] [%]	solubility [2] [µM]	half-life at 1 μM (Human plasma stability) [h]	Non-specific adsorption of peptide [3] [%]	tail immersion withdrawal latency (C57BL/6N male mice; 0.1 nmol icv, 15 min, baseline 9.99±0.5 sec) [s]	tail immersion withdrawal latency (C57BL/6N male mice; 0.1 nmol icv, 30 min, baseline 9.99±0.5 sec) [s]	tail immersion withdrawal latency (C57BL/6N male mice; 1 nmol icv, 15 min, baseline 10.12±0.59 sec) [s]	tail immersion withdrawal latency (C57BL/6N male mice; 1 nmol icv, 30 min, baseline 10.12±0.59 sec) [s]	EC50 (GalR2) [nM]
–	CSCC[C@H](NC(=O)[C@H](C)NC(=O)[C@H](CCC(N)=O)NC(=O)[C@@H]1CCCN1C(=O)[C@@H](NC(=O)[C@H](Cc1c[nH]c2ccccc12)NC(=O)[C@H](CC(N)=O)NC(C)=O)[C@@H](C)O)C(=O)N[C@@H](CC(C)C)C(=O)N[C@@H](Cc1ccc(O)cc1)C(=O)N[C@@H](CC(C)C)C(=O)N[C@@H](CCCCN)C(=O)NCC(=O)N[C@@H](C)C(=O)N[C@@H](CCC(N)=O)C(=O)N[C@@H](CCCCNC(=O)CCC(F)(F)C(F)(F)C(F)(F)C(F)(F)C(F)(F)C(F)(F)C(F)(F)C(F)(F)F)C(N)=O [LE-128]	2.3 ± 4	0	–	–	–	–	–	–	–	–	–
–	CSCC[C@H](NC(=O)[C@H](C)NC(=O)[C@H](CCC(N)=O)NC(=O)[C@@H]1CCCN1C(=O)[C@@H](NC(=O)[C@H](Cc1c[nH]c2ccccc12)NC(=O)[C@H](CC(N)=O)NC(=O)[C@H](CCCNC(=N)N)NC(=O)CNC(=O)[C@H](CCCNC(=N)N)NC(=O)CCC(F)(F)C(F)(F)C(F)(F)C(F)(F)C(F)(F)C(F)(F)C(F)(F)C(F)(F)F)[C@@H](C)O)C(=O)N[C@@H](CC(C)C)C(=O)N[C@@H](Cc1ccc(O)cc1)C(=O)N[C@@H](CC(C)C)C(=O)N[C@@H](CCCCN)C(=O)NCC(=O)N[C@@H](C)C(=O)N[C@@H](CCC(N)=O)C(N)=O [LE-130] ({Propanoyl(3-C8F17)}-RGRNWTPQAMLYLKGAQ-NH2)	0.089 ± 0.04	0	98.4	> 100	5.7	15	–	–	–	–	–
–	CSCC[C@H](NC(=O)[C@H](C)NC(=O)[C@H](CCC(N)=O)NC(=O)[C@@H]1CCCN1C(=O)[C@@H](NC(=O)[C@H](Cc1c[nH]c2ccccc12)NC(=O)[C@H](CC(N)=O)NC(=O)CCC(F)(F)C(F)(F)C(F)(F)C(F)(F)C(F)(F)C(F)(F)C(F)(F)C(F)(F)F)[C@@H](C)O)C(=O)N[C@@H](CC(C)C)C(=O)N[C@@H](Cc1ccc(O)cc1)C(=O)N[C@@H](CC(C)C)C(=O)N[C@@H](CCCCN)C(=O)NCC(=O)N[C@@H](C)C(=O)N[C@@H](CCC(N)=O)C(N)=O [LE-144]	0.038 ± 0.008	0	100	> 100	2.5	42	14.26 ± 0.93	14.06 ± 0.34	15.58 ± 0.61	13.94 ± 0.75	–
–	CSCC[C@H](NC(=O)[C@H](C)NC(=O)[C@H](CCC(N)=O)NC(=O)[C@@H]1CCCN1C(=O)[C@@H](NC(=O)[C@H](Cc1c[nH]c2ccccc12)NC(=O)[C@H](CC(N)=O)NC(C)=O)[C@@H](C)O)C(=O)N[C@@H](CC(C)C)C(=O)N[C@@H](Cc1ccc(O)cc1)C(=O)N[C@@H](CC(C)C)C(=O)N[C@@H](CCCCN)C(=O)NCC(=O)N[C@@H](C)C(=O)N[C@@H](CCC(N)=O)C(=O)N[C@@H](CCCCNC(=O)C(CCCNC(=N)N)NC(=O)CNC(=O)C(CCCNC(=N)N)NC(=O)CCC(F)(F)C(F)(F)C(F)(F)C(F)(F)C(F)(F)C(F)(F)C(F)(F)C(F)(F)F)C(N)=O (some centres unmarked) [LE-146]	–	–	–	–	–	–	–	–	–	–	8.4 ± 0.7
> 100	CSCC[C@H](NC(=O)[C@H](C)NC(=O)[C@H](CCC(N)=O)NC(=O)[C@@H]1CCCN1C(=O)[C@@H](NC(=O)[C@H](Cc1c[nH]c2ccccc12)NC(=O)[C@@H](N)CC(N)=O)[C@@H](C)O)C(=O)N[C@@H](CC(C)C)C(=O)N[C@@H](Cc1ccc(O)cc1)C(=O)N[C@@H](CC(C)C)C(=O)N[C@@H](CCCCN)C(=O)NCC(=O)N[C@@H](C)C(=O)N[C@@H](CCC(N)=O)C(N)=O [SPEXIN]	–	0	68.3	–	2.52	–	–	–	–	–	–
